Source: ChEMBL document CHEMBL1127992, “Novel conformationally restricted aromatic piperidines as selective sigma receptor ligands” (Bioorg Med Chem Lett, 1994)
pIC50: −log10 of the molar value.

What was measured:
[1] = biological target: Serotonin 2 (5-HT2) receptor (Homo sapiens, UniProt P41595+P28223+P28335); assay: Displacement of [3H]ketanserin from 5-hydroxytryptamine 2 receptor; format: protein assay
D(2) dopamine receptor = D(2) dopamine receptor (Homo sapiens, UniProt P14416); assay: Displacement of [3H]-spiperone from dopamine D2 receptor
D(2) dopamine receptor, sequence (P14416 whole entry): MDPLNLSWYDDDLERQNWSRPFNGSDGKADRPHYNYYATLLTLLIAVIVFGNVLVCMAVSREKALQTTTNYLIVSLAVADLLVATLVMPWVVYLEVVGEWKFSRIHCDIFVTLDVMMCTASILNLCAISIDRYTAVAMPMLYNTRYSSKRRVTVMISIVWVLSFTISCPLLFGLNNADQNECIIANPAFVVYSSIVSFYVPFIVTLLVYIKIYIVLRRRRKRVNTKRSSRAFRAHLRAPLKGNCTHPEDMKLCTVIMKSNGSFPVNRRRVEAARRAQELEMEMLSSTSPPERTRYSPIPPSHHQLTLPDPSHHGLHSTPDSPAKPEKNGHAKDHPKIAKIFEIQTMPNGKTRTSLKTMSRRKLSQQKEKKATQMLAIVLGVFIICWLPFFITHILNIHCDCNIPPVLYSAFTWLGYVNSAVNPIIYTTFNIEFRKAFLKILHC

## C(=C\c1ccccc1)/CNC1CCN(Cc2ccccc2)CC1.O=C(O)/C=C/C(=O)O
[1]
  Ki: 4.6 µM
D(2) dopamine receptor
  pIC50: < 5.00

## CN(C(=O)C#Cc1ccccc1)C1CCN(Cc2ccccc2)CC1.O=C(O)/C=C/C(=O)O
[1]
  Ki: 1.7 µM
D(2) dopamine receptor
  pIC50: 5.31

## CN(C/C=C/c1ccccc1)C1CCN(Cc2ccccc2)CC1.O=C(O)/C=C/C(=O)O
[1]
  Ki: 0.84 µM
D(2) dopamine receptor
  pIC50: < 5.00

## CN(CC#Cc1ccccc1)C1CCN(Cc2ccccc2)CC1.O=C(O)/C=C/C(=O)O
[1]
  Ki: 0.32 µM
D(2) dopamine receptor
  pIC50: 5.39

## C(#Cc1ccccc1)CN(c1ccccc1)C1CCN(Cc2ccccc2)CC1.O=C(O)/C=C/C(=O)O
[1]
  Ki: 0.28 µM
D(2) dopamine receptor
  pIC50: 6.05

## O=C(C#Cc1ccccc1)NC1CCN(Cc2ccccc2)CC1.O=C(O)/C=C/C(=O)O
[1]
  Ki: 0.28 µM
D(2) dopamine receptor
  pIC50: 5.60

## C(=C\c1ccccc1)/CN(c1ccccc1)C1CCN(Cc2ccccc2)CC1.O=C(O)/C=C/C(=O)O
[1]
  Ki: > 10 µM
D(2) dopamine receptor
  pIC50: < 5.00

## C(#Cc1ccccc1)CNC1CCN(Cc2ccccc2)CC1.O=C(O)/C=C/C(=O)O
[1]
  Ki: 3.3 µM
D(2) dopamine receptor
  pIC50: < 5.00

## O=C(/C=C/c1ccccc1)NC1CCN(Cc2ccccc2)CC1.O=C(O)/C=C/C(=O)O
[1]
  Ki: 0.1 µM
D(2) dopamine receptor
  pIC50: 5.33

## C(=C\c1ccccc1)/CN(C/C=C/c1ccccc1)C1CCN(Cc2ccccc2)CC1.O=C(O)/C=C/C(=O)O
[1]
  Ki: 0.55 µM
D(2) dopamine receptor
  pIC50: < 5.00

## CN(C(=O)/C=C/c1ccccc1)C1CCN(Cc2ccccc2)CC1.O=C(O)/C=C/C(=O)O
[1]
  Ki: 1.5 µM
D(2) dopamine receptor
  pIC50: 5.15
